Measurements reported in patent publication US20230117034A1, “PYRAZOLOTRIAZINES” (Bayer Aktiengesellschaft, priority 2019, published 2023).

Key:
[1] = target: CDK12/CycK (Homo sapiens, UniProt Q9NYV4); test: CDK12/CycK high ATP kinase assay (TR-FRET, 2 mM ATP); assay type: biochemical; settings: 2 mM ATP (high ATP); median; read-out: CDK12/CyclinK, 2 mM ATP (high ATP), IC50-[mol/l] (median)
Outline: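 His-tagged human CDK12/CycK (~0.75 nM) pre-incubated 15 min with compound, then 60 min at 22 °C with 2 mM ATP and 1 µM biotinylated peptide (HEPES pH 7.5, 20 mM MgCl2). EDTA stop; phospho-Ser62 antibody/Eu anti-rabbit and streptavidin-XL665 TR-FRET, 665/620 nm ratio normalised to give IC50.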

[2] = system: CAL-120, human breast adenocarcinoma cells; test: Proliferation assay CAL-120 (crystal violet, 4 days); assay type: cell-based; settings: Homo sapiens, CAL-120, 96 h, CAL-120 cells, median, read-out: Prolif-CAL-120, IC50-[mol/l] (median)
Outline: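 Cells seeded at 4,000/well in medium with 10% FCS; after 24 h, compounds added at 0.01-10 µmol/L (0.1% DMSO) for 4 days. Glutaraldehyde-fixed, crystal violet-stained, absorbance at 595 nm normalized to zero-point plate (0%) and untreated cells (100%); IC50 by 4-parameter fit.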

[3] = target: T1, CDK12 (nuclear staining in CAL-120 cells) (Homo sapiens, UniProt Q9NYV4); test: CDK12 nuclear protein level: immunofluorescence/high content analysis (CAL-120); assay type: cell-based; settings: for DC50: CAL-120 cells, 24 h, immunofluorescence, 50% reduction of nuclear CDK12 staining intensity, median, read-out: CDK12 degradation IF, DC50- [mol/l] (median); for (IC50 CDK12 high ATP) to (Degradation DC50 CDK12) ratio: ratio of IC50 CDK12 high ATP kinase assay to DC50 CDK12 degradation (IF, CAL-120)
T1 construct: endogenous in cells; host or cells: CAL-120 human breast cancer cells (DSMZ ACC 459)
T1 sequence (Q9NYV4 whole entry): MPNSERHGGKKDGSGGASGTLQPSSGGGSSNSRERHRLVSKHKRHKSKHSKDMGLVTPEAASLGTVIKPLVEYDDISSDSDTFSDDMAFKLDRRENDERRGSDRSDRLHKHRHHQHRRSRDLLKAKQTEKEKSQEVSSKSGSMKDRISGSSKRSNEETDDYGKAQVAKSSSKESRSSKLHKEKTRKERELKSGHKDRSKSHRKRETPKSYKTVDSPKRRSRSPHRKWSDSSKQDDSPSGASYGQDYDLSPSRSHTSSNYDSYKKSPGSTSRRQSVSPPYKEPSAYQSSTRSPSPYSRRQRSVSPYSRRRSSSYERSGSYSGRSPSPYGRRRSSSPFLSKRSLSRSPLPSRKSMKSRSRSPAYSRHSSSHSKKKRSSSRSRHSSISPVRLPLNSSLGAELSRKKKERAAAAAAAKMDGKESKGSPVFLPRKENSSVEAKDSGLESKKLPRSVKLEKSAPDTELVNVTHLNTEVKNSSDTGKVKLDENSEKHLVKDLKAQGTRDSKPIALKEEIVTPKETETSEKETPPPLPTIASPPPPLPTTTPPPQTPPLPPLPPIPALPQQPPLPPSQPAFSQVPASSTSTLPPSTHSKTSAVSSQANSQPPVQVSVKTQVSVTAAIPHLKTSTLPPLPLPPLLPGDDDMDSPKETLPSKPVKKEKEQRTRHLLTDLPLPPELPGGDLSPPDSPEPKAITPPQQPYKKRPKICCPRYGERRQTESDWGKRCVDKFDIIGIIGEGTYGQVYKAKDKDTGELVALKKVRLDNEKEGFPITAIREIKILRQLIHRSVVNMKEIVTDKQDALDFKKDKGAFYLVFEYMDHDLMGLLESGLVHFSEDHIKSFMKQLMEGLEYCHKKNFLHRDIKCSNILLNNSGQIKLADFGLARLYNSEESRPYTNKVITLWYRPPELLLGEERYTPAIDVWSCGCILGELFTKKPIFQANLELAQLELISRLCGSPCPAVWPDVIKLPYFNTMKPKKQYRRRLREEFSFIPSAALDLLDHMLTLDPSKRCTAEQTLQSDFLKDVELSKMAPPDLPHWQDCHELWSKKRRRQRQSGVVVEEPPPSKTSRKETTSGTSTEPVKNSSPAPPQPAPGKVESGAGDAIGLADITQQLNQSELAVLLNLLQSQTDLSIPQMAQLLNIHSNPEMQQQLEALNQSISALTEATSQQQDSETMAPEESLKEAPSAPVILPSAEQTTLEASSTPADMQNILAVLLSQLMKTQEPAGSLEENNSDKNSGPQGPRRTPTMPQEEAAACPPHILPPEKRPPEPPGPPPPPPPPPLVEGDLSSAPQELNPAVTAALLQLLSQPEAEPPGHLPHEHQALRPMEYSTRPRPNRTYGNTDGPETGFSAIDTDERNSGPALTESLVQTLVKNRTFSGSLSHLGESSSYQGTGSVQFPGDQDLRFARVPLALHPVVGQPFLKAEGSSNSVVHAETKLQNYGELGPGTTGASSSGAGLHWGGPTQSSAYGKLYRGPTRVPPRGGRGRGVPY
T1 sequence (O75909 whole entry partner): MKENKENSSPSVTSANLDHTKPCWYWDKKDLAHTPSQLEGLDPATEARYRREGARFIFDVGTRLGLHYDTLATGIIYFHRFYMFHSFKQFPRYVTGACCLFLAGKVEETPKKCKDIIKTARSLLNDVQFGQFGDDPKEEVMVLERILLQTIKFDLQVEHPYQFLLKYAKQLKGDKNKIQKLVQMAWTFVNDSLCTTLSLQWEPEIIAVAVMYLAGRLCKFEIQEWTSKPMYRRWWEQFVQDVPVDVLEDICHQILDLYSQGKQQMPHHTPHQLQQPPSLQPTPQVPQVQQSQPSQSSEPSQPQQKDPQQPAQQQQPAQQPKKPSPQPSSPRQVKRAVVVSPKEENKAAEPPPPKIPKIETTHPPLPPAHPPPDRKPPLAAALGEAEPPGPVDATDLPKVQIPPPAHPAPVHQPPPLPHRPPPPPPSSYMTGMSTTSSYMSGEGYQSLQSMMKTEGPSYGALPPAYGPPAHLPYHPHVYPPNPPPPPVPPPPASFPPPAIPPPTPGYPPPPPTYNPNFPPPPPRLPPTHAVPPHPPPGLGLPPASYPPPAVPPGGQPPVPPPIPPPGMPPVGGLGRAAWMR
Outline: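 CAL-120 cells were treated with compound for 24 h at 37 °C, fixed with PFA and immunostained for CDK12. Nuclear CDK12 intensity was quantified by automated image analysis and normalized to DMSO and control. DC50 is the concentration giving 50% reduction of nuclear staining.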

Chain of CDK12/CycK (Q9NYV4 with tags, fused parts or gaps): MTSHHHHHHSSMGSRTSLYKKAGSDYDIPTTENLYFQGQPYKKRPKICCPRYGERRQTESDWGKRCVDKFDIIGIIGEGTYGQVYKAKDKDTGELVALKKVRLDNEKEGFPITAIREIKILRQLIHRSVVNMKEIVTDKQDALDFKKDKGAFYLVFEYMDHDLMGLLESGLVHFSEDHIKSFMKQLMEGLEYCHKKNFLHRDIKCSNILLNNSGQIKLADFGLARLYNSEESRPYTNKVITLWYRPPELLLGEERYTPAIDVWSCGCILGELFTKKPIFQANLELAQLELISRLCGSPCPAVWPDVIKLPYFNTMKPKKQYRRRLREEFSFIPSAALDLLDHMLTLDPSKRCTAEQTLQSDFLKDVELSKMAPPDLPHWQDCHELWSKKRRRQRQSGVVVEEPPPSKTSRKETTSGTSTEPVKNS
Chain of CDK12/CycK (O75909 1-300 partner limits assumed): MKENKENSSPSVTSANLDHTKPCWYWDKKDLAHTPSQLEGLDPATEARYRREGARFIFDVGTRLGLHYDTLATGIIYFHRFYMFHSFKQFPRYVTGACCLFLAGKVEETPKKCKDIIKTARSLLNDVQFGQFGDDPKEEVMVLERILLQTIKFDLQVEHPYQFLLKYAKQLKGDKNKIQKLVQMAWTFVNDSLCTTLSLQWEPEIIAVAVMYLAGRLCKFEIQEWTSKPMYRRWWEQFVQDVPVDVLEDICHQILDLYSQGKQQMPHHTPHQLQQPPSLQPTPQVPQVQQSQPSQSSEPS

SMILES | IC50 [1] | IC50 [2] | DC50 [3] | (IC50 CDK12 high ATP) to (Degradation DC50 CDK12) ratio [3]
CC1CN(C)CCN1c1nc(NCc2nc3ccccc3[nH]2)n2ncc(Br)c2n1 (stereo not shown) [Example 156, N-(1H-benzimidazol-2-ylmethyl)-8-bromo-2-(2,4-dimethylpiperazin-1-yl)pyrazolo[1,5-a][1,3,5]triazin-4-amine] | 9.4 µM | 5.45 nM | 1.06 nM | 8849
Brc1cnn2c(NCc3nc4ccccc4[nH]3)nc(N3C[C@@H]4C[C@H]3CO4)nc12 [Example 103, N-[(1H-benzimidazol-2-yl)methyl]-8-bromo-2-[(1S,4S)-2-oxa-5-azabicyclo[2.2.1]heptan-5-yl]pyrazolo[1,5-a][1,3,5]triazin-4-amine] | 10.3 µM | 46.5 nM | 5.36 nM | 1914
Cc1ccc(-c2nnc(CNc3nc(N4CCOCC4)nc4c(Br)cnn34)[nH]2)cc1F [Example 98, 8-bromo-N-{[5-(3-fluoro-4-methylphenyl)-4H-1,2,4-triazol-3-yl]methyl}-2-(morpholin-4-yl)pyrazolo[1,5-a][1,3,5]triazin-4-amine] | 1.08 µM | 116 nM | 38.5 nM | 28
Brc1cnn2c(NCc3nc4ccccc4[nH]3)nc(N3C[C@@H]4CCCN[C@@H]4C3)nc12 [Example 146, N-[(1H-benzimidazol-2-yl)methyl]-8-bromo-2-[(4aS,7aS)-octahydro-6H-pyrrolo[3,4-b]pyridin-6-yl]pyrazolo[1,5-a][1,3,5]triazin-4-amine] | 8.86 µM | 31 nM | 3.82 nM | 2320
OCC1CCN1c1nc(NCc2nc3ccccc3[nH]2)n2ncc(Br)c2n1 (stereo not shown) [Example 147, [1-[4-(1H-benzimidazol-2-ylmethylamino)-8-bromo-pyrazolo[1,5-a][1,3,5]triazin-2-yl]azetidin-2-yl]methanol] | 4.97 µM | 310 nM | 13.9 nM | 359
CC1(C)CN(c2nc(NCc3nc4ccccc4[nH]3)n3ncc(C4CC4)c3n2)CCO1 [Example 123, N-[(1H-benzimidazol-2-yl)methyl]-8-cyclopropyl-2-(2,2-dimethylmorpholin-4-yl)pyrazolo[1,5-a][1,3,5]triazin-4-amine] | 12.6 µM | 83.2 nM | 4.37 nM | 2883
CN1CCN(c2nc(NCc3nc4c(F)cccc4[nH]3)n3ncc(C4CC4)c3n2)CC1 [Example 165, 8-cyclopropyl-N-[(4-fluoro-1H-benzimidazol-2-yl)methyl]-2-(4-methylpiperazin-1-yl)pyrazolo[1,5-a][1,3,5]triazin-4-amine] | 10.2 µM | 4.16 nM | 0.405 nM | 25224
Brc1cnn2c(NCc3nc4ccccc4[nH]3)nc(N3CCOCC3)nc12 [Example 4, N-[(1H-benzimidazol-2-yl)methyl]-8-bromo-2-(morpholin-4-yl)pyrazolo[1,5-a][1,3,5]triazin-4-amine] | 1.74 µM | 12 nM | 1.07 nM | 1628
Fc1ccc(-c2cnn3c(NCc4nc5ccccc5[nH]4)nc(N4CCOCC4)nc23)cc1 [Example 106, N-[(1H-benzimidazol-2-yl)methyl]-8-(4-fluorophenyl)-2-(morpholin-4-yl)pyrazolo[1,5-a][1,3,5]triazin-4-amine] | > 9.99 µM | 47 nM | 11.4 nM | >876
Fc1cccc2[nH]c(CNc3nc(N4CCOCC4)nc4c(Br)cnn34)nc12 [Example 97, 8-bromo-N-[(4-fluoro-1H-benzimidazol-2-yl)methyl]-2-(morpholin-4-yl)pyrazolo[1,5-a][1,3,5]triazin-4-amine] | 0.788 µM | 5.17 nM | 0.327 nM | 2411
C[C@H]1CN(c2nc(NCc3nnc(-c4cccc(F)c4)[nH]3)n3ncc(Br)c3n2)CCN1C [Example 154, 8-bromo-2-[(3S)-3,4-dimethylpiperazin-1-yl]-N-{[5-(3-fluorophenyl)-4H-1,2,4-triazol-3-yl]methyl}pyrazolo[1,5-a][1,3,5]triazin-4-amine] | 7.17 µM | 7.69 nM | 5.27 nM | 1360
Clc1cccc(-c2cnn3c(NCc4nc5ccccc5[nH]4)nc(N4CCOCC4)nc23)c1 [Example 107, N-[(1H-benzimidazol-2-yl)methyl]-8-(3-chlorophenyl)-2-(morpholin-4-yl)pyrazolo[1,5-a][1,3,5]triazin-4-amine] | > 20 µM | 188 nM | 57.7 nM | >347
C[C@@H]1CN(c2nc(NCc3nnc(-c4ccccc4)[nH]3)n3ncc(Br)c3n2)C[C@H](C)N1C [Example 125, 8-bromo-N-[(5-phenyl-4H-1,2,4-triazol-3-yl)methyl]-2-[(3R,5S)-3,4,5-trimethylpiperazin-1-yl]pyrazolo[1,5-a][1,3,5]triazin-4-amine] | 10.9 µM | 53.1 nM | 6.3 nM | 1724
COc1ccc2[nH]c(CNc3nc(N4CCOCC4)nc4c(Br)cnn34)nc2c1 [Example 160, 8-bromo-N-[(5-methoxy-1H-benzimidazol-2-yl)methyl]-2-(morpholin-4-yl)pyrazolo[1,5-a][1,3,5]triazin-4-amine] | 1.24 µM | 6.5 nM | 1.4 nM | 889
CN1CCN(c2nc(NCc3nnc(-c4cccc(F)c4)[nH]3)n3ncc(Br)c3n2)CC1 [Example 136, 8-bromo-N-{[5-(3-fluorophenyl)-4H-1,2,4-triazol-3-yl]methyl}-2-(4-methylpiperazin-1-yl)pyrazolo[1,5-a][1,3,5]triazin-4-amine] | 4.12 µM | 17.1 nM | 3.61 nM | 1140
Brc1cnn2c(NCc3nc4ccccc4[nH]3)nc(N3CCN4CCC[C@@H]4C3)nc12 [Example 149, N-[(1H-benzimidazol-2-yl)methyl]-8-bromo-2-[(8aR)-hexahydropyrrolo[1,2-a]pyrazin-2 (1 H)-yl]pyrazolo[1,5-a][1,3,5]triazin-4-amine] | 6.22 µM | 164 nM | 12.6 nM | 495
C[C@@H]1CN(c2nc(NCc3nc4c(F)cccc4[nH]3)n3ncc(Br)c3n2)C[C@H](C)O1 [Example 109, 8-bromo-2-[(2R,6S)-2,6-dimethylmorpholin-4-yl]-N-[(4-fluoro-1H-benzimidazol-2-yl)methyl]pyrazolo[1,5-a][1,3,5]triazin-4-amine] | 0.176 µM | 4.9 nM | 1.09 nM | 162
Brc1cnn2c(NCc3nc4ccccc4[nH]3)nc(N3CCN4CCC[C@H]4C3)nc12 [Example 148, N-[(1H-benzimidazol-2-yl)methyl]-8-bromo-2-[(8aS)-hexahydropyrrolo[1,2-a]pyrazin-2 (1 H)-yl]pyrazolo[1,5-a][1,3,5]triazin-4-amine] | 10.8 µM | 109 nM | 16 nM | 677
N=S1(=O)CCN(c2nc(NCc3nc4ccccc4[nH]3)n3ncc(Br)c3n2)CC1 [Example 145, 4-(4-{[(1H-benzimidazol-2-yl)methyl]amino}-8-bromopyrazolo[1,5-a][1,3,5]triazin-2-yl)-1-imino-1lambda^6-thiomorpholin-1-one] | 12.6 µM | 223 nM | 16.8 nM | 751
Fc1cc(F)cc(-c2nnc(CNc3nc(N4CCOCC4)nc4c(Br)cnn34)[nH]2)c1 [Example 105, 8-bromo-N-{[5-(3,5-difluorophenyl)-4H-1,2,4-triazol-3-yl]methyl}-2-(morpholin-4-yl)pyrazolo[1,5-a][1,3,5]triazin-4-amine] | 1.07 µM | 7.36 nM | 2.49 nM | 429
CN1CCN(c2nc(NCc3nnc(-c4ccccc4)[nH]3)n3ncc(Br)c3n2)CC1=O [Example 121, 4-(8-bromo-4-{[(5-phenyl-4H-1,2,4-triazol-3-yl)methyl]amino}pyrazolo[1,5-a][1,3,5]triazin-2-yl)-1-methylpiperazin-2-one] | 7.47 µM | 404 nM | 43.5 nM | 172
Cc1ccc2[nH]c(CNc3nc(N4CCN(C)CC4)nc4c(Br)cnn34)nc2c1 [Example 158, 8-bromo-N-[(5-methyl-1H-benzimidazol-2-yl)methyl]-2-(4-methylpiperazin-1-yl)pyrazolo[1,5-a][1,3,5]triazin-4-amine] | 4.46 µM | 1.17 nM | 0.536 nM | 8313
